Assay results taken from ChEMBL document CHEMBL5445981, “Affinity On-target Cellular Literature for EUbOPEN Chemogenomic Library” (2024).
Values belong to the compound of their own block, whether it stands above or below them.

Legend:
[1] = target: Histone-lysine N-methyltransferase NSD3 (Homo sapiens, UniProt Q9BZ95); assay: Affinity On-target Cellular interaction: (NanoBRET assay (Nluc-NSD3-PWWP1 fusion protein in U2OS cells)) EUB0000270b NSD3; format: cell-based; set-up: mode of action Negative control for BI-9321, recommended concentration 1 uM
[2] = target: T1, Inhibitor of nuclear factor kappa-B kinase subunit beta (Homo sapiens, UniProt O14920); assay: Affinity On-target Cellular interaction: (Cellular assay (inhibition of phospho-IKBKB in HeLa cells)) EUB0001492b IKBKB; format: cell-based; set-up: mode of action Inhibitor, recommended concentration 1 uM
[3] = target: Chromatin remodeling regulator CECR2 (Homo sapiens, UniProt Q9BXF3); assay: Affinity On-target Cellular interaction: (NanoBRET assay (NL-FL […] in HEK293 cells)) EUB0000233b CECR2; format: cell-based; set-up: mode of action Inhibitor, recommended concentration 1 uM
[4] = target: Nucleosome-remodeling factor subunit BPTF (Homo sapiens, UniProt Q12830); assay: Affinity On-target Cellular interaction: (NanoBRET assay (NL-BPTF BD in HEK293 cells)) EUB0000233b BPTF; format: cell-based; set-up: mode of action Inhibitor, recommended concentration 1 uM
[5] = target: Serine/threonine-protein kinase SIK1 (Homo sapiens, UniProt P57059); assay: Affinity On-target Cellular interaction: (NanoBRET assay (HEK293T cells)) EUB0001479a SIK1; format: cell-based, HEK-293T; set-up: mode of action Negative control for MRIA9, recommended concentration 1 uM
[6] = target: Serine/threonine-protein kinase SIK2 (Homo sapiens, UniProt Q9H0K1); assay: Affinity On-target Cellular interaction: (NanoBRET assay (HEK293T cells)) EUB0001479a SIK2; format: cell-based, HEK-293T; set-up: mode of action Negative control for MRIA9, recommended concentration 1 uM
[7] = target: Serine/threonine-protein kinase SIK3 (Homo sapiens, UniProt Q9Y2K2); assay: Affinity On-target Cellular interaction: (NanoBRET assay (HEK293T cells)) EUB0001479a SIK3; format: cell-based, HEK-293T; set-up: mode of action Negative control for MRIA9, recommended concentration 1 uM
[8] = target: T1, Inhibitor of nuclear factor kappa-B kinase subunit beta; assay: Affinity On-target Cellular interaction: (NanoBRET assay (HEK293T cells)) EUB0001576a IKBKB; format: cell-based, HEK-293T; set-up: mode of action Negative control for BI 605906, recommended concentration 1 uM
[9] = target: Serine/threonine-protein kinase 17A (Homo sapiens, UniProt Q9UEE5)
[10] = target: Dual specificity protein kinase CLK4 (Homo sapiens, UniProt Q9HAZ1); assay: Affinity On-target Cellular interaction: (NanoBRET assay (in HEK293T cells)) EUB0000008b CLK4; format: cell-based, HEK-293T; set-up: mode of action Inhibitor, recommended concentration 1 uM
[11] = target: Dual specificity tyrosine-phosphorylation-regulated kinase 1A (Homo sapiens, UniProt Q13627); assay: Affinity On-target Cellular interaction: (NanoBRET assay (in HEK293T cells)) EUB0000008b DYRK1A; format: cell-based, HEK-293T; set-up: mode of action Inhibitor, recommended concentration 1 uM
[12] = target: Dual specificity tyrosine-phosphorylation-regulated kinase 2 (Homo sapiens, UniProt Q92630); assay: Affinity On-target Cellular interaction: (NanoBRET assay (in HEK293T cells)) EUB0000008b DYRK2; format: cell-based, HEK-293T; set-up: mode of action Inhibitor, recommended concentration 1 uM
[13] = target: RAC-alpha serine/threonine-protein kinase (Homo sapiens, UniProt P31749); assay: Affinity On-target Cellular interaction: (NanoBRET assay (HEK293T cells)) EUB0001563a AKT1; format: cell-based; set-up: mode of action Negative control for Borussertib, recommended concentration 1 uM; conditions: hek-293t
[14] = target: RAC-beta serine/threonine-protein kinase (Homo sapiens, UniProt P31751); assay: Affinity On-target Cellular interaction: (NanoBRET assay (HEK293T cells)) EUB0001563a AKT2; format: cell-based; set-up: mode of action Negative control for Borussertib, recommended concentration 1 uM; conditions: hek-293t
[15] = target: Cyclin-G-associated kinase (Homo sapiens, UniProt O14976); assay: Affinity On-target Cellular interaction: (NanoBRET assay (HEK293T cells)) EUB0000229b GAK; format: cell-based, HEK-293T; set-up: mode of action Negative control for SGC-GAK-1, recommended concentration 1 uM
[16] = target: Receptor tyrosine-protein kinase erbB-2 (Homo sapiens, UniProt P04626); assay: Affinity On-target Cellular interaction: (Western Blot (EGF-induced autophosphorylation of the chimera EGFR extracellular domain and erbB2 intracellular domain in NIH 3T3 cells)) EUB0000595a ERBB2; format: cell-based; set-up: mode of action Inhibitor, recommended concentration 1 uM; conditions: nih3t3
[17] = target: Cyclin-dependent kinase 7 (Homo sapiens, UniProt P50613); assay: Affinity On-target Cellular interaction: (Radioactive in vitro kinase assays (from cellular wild-type CDK7 immunoprecipitated in HeLa cells)) EUB0001635a CDK7; format: cell-based; set-up: mode of action Covalent inhibitor, recommended concentration 1 uM
[18] = target: Calcium/calmodulin-dependent protein kinase type 1D (Homo sapiens, UniProt Q8IU85); assay: Affinity On-target Cellular interaction: (NanoBRET assay (in HEK293T cells)) EUB0000878a CAMK1D; format: cell-based, HEK-293T; set-up: mode of action Inhibitor, recommended concentration 100 nM
SRSF protein kinase 1 = SRSF protein kinase 1 (Homo sapiens, UniProt Q96SB4)
SRSF protein kinase 2 = SRSF protein kinase 2 (Homo sapiens, UniProt P78362)
[19] = target: Histone-arginine methyltransferase CARM1 (Homo sapiens, UniProt Q86X55); assay: Affinity On-target Cellular interaction: (Western Blot (dimethylation of BAF155, BAF155me2a/BAF155, in HEK293T cells)) EUB0000255b CARM1; format: cell-based, HEK-293T; set-up: mode of action Negative control for TP-064, recommended concentration 1 uM
[20] = target: T2, Casein kinase I isoform delta (Homo sapiens, UniProt P48730); assay: Affinity On-target Cellular interaction: (NanoBRET asssay (HEK293T cells)) EUB0001201a CSNK1D; format: cell-based, HEK-293T; set-up: mode of action Negative control for MU1742, recommended concentration 1 uM
[21] = target: T3, Casein kinase I isoform epsilon (Homo sapiens, UniProt P49674); assay: Affinity On-target Cellular interaction: (NanoBRET asssay (HEK293T cells)) EUB0001201a CSNK1E; format: cell-based, HEK-293T; set-up: mode of action Negative control for MU1742, recommended concentration 1 uM
[22] = target: Casein kinase I isoform alpha (Homo sapiens, UniProt P48729); assay: Affinity On-target Cellular interaction: (NanoBRET asssay (HEK293T cells)) EUB0001205a CSNK1A1; format: cell-based, HEK-293T; set-up: mode of action Inhibitor, recommended concentration 1 uM
[23] = target: T2, Casein kinase I isoform delta; assay: Affinity On-target Cellular interaction: (NanoBRET asssay (HEK293T cells)) EUB0001205a CSNK1D; format: cell-based, HEK-293T; set-up: mode of action Inhibitor, recommended concentration 1 uM
[24] = target: T3, Casein kinase I isoform epsilon; assay: Affinity On-target Cellular interaction: (NanoBRET asssay (HEK293T cells)) EUB0001205a CSNK1E; format: cell-based, HEK-293T; set-up: mode of action Inhibitor, recommended concentration 1 uM
[25] = target: Dual specificity protein kinase CLK1 (Homo sapiens, UniProt P49759); assay: Affinity On-target Cellular interaction: (NanoBRET assay (HEK293T cells)) EUB0001049a CLK1; format: cell-based, HEK-293T; set-up: mode of action Negative control for SGC-CLK-1 (UNC-CAF-170 ), recommended concentration 1 uM
[26] = target: Dual specificity protein kinase CLK2 (Homo sapiens, UniProt P49760); assay: Affinity On-target Cellular interaction: (NanoBRET assay (HEK293T cells)) EUB0001049a CLK2; format: cell-based, HEK-293T; set-up: mode of action Negative control for SGC-CLK-1 (UNC-CAF-170 ), recommended concentration 1 uM

T2 sequence (P48730 whole entry, canonical isoform): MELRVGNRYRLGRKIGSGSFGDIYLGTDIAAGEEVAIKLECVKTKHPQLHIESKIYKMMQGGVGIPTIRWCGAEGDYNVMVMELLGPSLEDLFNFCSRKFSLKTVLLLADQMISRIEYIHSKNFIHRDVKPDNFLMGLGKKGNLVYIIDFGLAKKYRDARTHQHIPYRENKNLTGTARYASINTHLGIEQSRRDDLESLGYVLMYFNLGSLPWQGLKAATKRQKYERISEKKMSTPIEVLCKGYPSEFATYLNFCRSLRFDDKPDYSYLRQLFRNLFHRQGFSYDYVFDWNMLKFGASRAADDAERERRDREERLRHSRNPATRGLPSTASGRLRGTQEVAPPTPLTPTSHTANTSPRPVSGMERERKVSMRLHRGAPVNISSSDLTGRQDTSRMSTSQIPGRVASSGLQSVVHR
T1 sequence (O14920 whole entry): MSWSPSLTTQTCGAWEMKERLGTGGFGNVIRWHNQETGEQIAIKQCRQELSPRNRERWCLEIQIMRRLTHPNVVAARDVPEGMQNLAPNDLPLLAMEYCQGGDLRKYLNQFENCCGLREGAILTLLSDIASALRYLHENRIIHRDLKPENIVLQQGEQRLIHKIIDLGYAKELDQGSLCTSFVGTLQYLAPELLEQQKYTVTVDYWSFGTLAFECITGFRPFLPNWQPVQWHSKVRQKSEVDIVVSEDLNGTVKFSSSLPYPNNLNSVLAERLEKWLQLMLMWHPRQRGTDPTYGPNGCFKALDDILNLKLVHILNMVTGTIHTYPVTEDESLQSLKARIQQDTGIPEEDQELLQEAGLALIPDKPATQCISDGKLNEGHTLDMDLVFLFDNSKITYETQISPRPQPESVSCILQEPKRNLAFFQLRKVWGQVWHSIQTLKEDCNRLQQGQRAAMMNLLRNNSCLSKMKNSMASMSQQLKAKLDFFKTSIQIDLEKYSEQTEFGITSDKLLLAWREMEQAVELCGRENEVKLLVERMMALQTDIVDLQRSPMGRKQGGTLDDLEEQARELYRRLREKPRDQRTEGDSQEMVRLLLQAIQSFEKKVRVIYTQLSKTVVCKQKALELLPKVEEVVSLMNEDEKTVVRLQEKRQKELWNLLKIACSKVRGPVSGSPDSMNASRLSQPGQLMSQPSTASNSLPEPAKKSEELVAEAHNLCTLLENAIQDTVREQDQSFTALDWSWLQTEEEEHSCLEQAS
T3 sequence (P49674 whole entry, canonical isoform): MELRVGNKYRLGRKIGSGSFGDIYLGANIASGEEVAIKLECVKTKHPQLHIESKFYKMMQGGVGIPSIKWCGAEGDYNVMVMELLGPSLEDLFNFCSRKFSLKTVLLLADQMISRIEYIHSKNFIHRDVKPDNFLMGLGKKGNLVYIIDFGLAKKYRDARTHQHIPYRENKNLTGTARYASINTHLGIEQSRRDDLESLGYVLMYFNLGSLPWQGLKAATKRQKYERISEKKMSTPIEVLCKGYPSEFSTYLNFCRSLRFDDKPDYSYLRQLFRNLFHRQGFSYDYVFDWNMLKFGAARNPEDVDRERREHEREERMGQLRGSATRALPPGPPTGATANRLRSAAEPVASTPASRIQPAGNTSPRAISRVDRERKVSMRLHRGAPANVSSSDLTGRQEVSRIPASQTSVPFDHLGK
Chain of RAC-beta serine/threonine-protein kinase (P31751 whole entry): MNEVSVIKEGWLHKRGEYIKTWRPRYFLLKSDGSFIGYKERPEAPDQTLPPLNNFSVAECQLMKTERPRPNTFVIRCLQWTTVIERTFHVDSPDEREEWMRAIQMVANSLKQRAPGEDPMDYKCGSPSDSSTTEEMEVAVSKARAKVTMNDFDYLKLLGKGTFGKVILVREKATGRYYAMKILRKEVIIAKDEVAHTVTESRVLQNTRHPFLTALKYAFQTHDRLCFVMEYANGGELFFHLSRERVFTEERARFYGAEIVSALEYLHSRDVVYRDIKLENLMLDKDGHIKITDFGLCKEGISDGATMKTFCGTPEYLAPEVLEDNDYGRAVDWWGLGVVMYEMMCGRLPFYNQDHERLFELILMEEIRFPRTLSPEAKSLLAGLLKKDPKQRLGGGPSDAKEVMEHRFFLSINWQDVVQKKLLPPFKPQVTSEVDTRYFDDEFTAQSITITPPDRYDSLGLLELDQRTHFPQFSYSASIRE
Chain of SRSF protein kinase 2 (P78362 whole entry): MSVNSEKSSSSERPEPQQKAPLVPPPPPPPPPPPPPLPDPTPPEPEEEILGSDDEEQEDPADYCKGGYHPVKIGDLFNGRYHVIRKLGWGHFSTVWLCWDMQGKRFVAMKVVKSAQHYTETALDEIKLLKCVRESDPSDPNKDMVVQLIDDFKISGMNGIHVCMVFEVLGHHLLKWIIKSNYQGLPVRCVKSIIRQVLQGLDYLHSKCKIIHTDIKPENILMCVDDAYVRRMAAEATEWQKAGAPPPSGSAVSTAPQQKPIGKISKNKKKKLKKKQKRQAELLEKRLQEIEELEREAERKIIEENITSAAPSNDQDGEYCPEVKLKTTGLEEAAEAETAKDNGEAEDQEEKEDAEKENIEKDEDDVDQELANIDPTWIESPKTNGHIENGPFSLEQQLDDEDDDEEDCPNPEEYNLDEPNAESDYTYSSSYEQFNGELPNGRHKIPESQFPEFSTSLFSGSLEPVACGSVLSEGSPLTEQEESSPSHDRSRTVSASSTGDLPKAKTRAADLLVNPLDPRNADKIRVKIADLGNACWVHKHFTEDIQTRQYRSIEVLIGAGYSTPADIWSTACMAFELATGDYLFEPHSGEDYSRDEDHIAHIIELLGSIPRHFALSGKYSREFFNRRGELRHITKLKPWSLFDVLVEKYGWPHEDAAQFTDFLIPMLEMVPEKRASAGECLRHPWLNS
Chain of Calcium/calmodulin-dependent protein kinase type 1D (Q8IU85 whole entry): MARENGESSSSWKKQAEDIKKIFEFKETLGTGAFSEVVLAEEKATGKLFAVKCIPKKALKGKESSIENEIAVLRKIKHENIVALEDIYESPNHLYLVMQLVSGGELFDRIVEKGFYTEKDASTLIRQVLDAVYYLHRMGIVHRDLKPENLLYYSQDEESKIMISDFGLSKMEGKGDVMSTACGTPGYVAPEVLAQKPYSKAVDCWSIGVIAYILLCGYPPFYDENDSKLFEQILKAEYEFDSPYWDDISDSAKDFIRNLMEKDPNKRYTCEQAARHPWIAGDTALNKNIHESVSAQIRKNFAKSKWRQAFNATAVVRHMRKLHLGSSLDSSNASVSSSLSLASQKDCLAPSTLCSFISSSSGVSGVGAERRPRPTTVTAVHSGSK
Chain of Serine/threonine-protein kinase SIK3 (Q9Y2K2 whole entry): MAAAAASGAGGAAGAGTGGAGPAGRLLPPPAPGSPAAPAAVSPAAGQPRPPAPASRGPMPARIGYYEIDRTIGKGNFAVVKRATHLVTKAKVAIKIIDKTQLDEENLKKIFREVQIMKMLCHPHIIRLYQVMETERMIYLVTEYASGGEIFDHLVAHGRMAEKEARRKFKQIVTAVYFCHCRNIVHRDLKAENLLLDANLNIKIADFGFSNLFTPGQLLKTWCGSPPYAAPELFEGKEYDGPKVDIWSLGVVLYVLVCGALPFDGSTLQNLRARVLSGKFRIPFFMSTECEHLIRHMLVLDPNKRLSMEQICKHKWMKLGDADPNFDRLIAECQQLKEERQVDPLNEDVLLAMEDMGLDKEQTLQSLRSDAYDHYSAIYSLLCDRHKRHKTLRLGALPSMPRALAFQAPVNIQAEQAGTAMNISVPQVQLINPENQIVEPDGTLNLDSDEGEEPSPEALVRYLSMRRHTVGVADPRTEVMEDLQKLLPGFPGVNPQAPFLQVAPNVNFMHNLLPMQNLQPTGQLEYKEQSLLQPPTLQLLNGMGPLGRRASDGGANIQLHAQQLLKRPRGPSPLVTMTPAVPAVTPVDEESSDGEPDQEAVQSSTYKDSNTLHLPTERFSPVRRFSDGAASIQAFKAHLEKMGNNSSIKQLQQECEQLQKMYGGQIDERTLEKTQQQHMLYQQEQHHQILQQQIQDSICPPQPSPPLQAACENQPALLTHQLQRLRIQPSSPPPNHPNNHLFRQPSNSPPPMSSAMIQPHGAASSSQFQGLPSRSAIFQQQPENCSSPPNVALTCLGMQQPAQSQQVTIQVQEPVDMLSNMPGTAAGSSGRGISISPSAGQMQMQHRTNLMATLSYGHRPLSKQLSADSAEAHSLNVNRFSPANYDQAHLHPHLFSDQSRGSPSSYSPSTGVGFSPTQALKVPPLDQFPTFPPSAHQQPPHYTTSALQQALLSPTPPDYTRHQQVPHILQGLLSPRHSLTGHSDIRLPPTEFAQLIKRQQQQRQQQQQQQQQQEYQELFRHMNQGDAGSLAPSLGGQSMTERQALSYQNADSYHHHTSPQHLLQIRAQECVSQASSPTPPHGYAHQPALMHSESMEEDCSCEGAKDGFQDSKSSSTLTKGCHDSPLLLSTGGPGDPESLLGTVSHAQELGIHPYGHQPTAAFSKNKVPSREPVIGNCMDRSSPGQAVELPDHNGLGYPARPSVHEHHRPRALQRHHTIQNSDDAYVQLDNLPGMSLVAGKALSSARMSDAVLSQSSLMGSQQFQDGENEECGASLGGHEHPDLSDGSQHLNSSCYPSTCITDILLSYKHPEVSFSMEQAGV
Chain of Cyclin-dependent kinase 7 (P50613 whole entry): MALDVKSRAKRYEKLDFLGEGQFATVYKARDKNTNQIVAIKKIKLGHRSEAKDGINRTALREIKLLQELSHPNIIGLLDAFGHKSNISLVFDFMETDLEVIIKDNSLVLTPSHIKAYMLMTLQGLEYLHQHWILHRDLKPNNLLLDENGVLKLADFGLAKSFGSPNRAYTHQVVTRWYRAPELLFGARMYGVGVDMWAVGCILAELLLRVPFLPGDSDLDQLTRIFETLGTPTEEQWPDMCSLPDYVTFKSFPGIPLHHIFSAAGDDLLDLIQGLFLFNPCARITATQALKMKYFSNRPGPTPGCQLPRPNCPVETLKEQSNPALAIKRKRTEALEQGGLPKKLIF

Compound: Cc1cc(CN)cc(C)c1-c1ncn(C)c1-c1cncn1C
- IC50 [1]: > 10 µM

Compound: CCC(F)(F)c1cc(N2CCC(S(C)(=O)=O)CC2)nc2sc(C(N)=O)c(N)c12 [BI-605906]
- EC50 [2]: 0.9 µM

Compound: CN(C)C(=O)c1sc2nc(N3CCC(S(C)(=O)=O)CC3)cc(C(F)(F)F)c2c1N [BI-5026]
- IC50 [8]: > 20 µM

Compound: CN1CCN(C(=O)c2ccc3cc2OCCOCCNc2ccn4ncc-3c4n2)CC1
- IC50 [9]: > 45 µM

Compound: C=CC(=O)Nc1ccc2[nH]c(=O)n(C3CCN(Cc4ccc(-c5ccc6c(c5)NC(=O)CO6)cc4)CC3)c2c1 [RL2578]
- IC50 [13]: 1.9 µM
- IC50 [14]: 8.3 µM

Compound: COc1cc(N(C)c2ccnc3ccc(C(F)(F)F)cc23)cc(OC)c1OC
- IC50 [15]: > 5 µM

Compound: CC(C)c1cc(Nc2nc(N3CCC[C@H](N)C3)ncc2C(N)=O)cc(C(C)C)n1
- IC50 [18]: 0.029 µM

Compound: COc1cc(Nc2nc(C)cc(-c3cnn4nc(OC)ccc34)n2)cc(C(F)(F)F)c1
- IC50 [25]: > 10 µM
- IC50 [26]: > 10 µM

Second part, the compound after the results:

- EC50 [3]: 0.289 µM
- EC50 [4]: 0.228 µM
Compound: CN(C)CCCOc1ccc(-c2cc(NCCCn3cccn3)nc(S(C)(=O)=O)n2)cc1

- IC50 [5]: 14 µM
- IC50 [6]: 14 µM
- IC50 [7]: 14 µM
Compound: CN(C)c1ncc2cc(-c3ccc(-c4ncccc4F)cc3Cl)c(=O)n(C[C@H]3OC[C@H](N)CO3)c2n1

- Ki [10]: 0.023 µM
- Ki [11]: 6.58 µM
- Ki [12]: 1.7 µM
Compound: Cn1cc(-c2ccc3occ(-c4cccc(-c5ccncc5)c4)c3n2)cn1

- IC50 [16]: 0.032 µM
Compound: COCC(=O)NC/C=C/c1ccc2ncnc(Nc3ccc(Oc4ccc(C)nc4)c(C)c3)c2c1 [CP-724714]

- IC50 [17]: 0.0625 µM
Compound: C=CC(=O)Nc1ccc(C(=O)Nc2n[nH]c3c2CN(C(=O)N[C@H](CN(C)C)c2ccccc2)C3(C)C)cc1

- IC50 (SRSF protein kinase 1): > 50 µM
- IC50 (SRSF protein kinase 2): > 50 µM
Compound: CN(c1ncccc1CNc1ccnc(-c2cc3cc(Cl)ccc3[nH]2)n1)S(C)(=O)=O

- IC50 [19]: > 10 µM
Compound: COCCN1CCC(c2cc(CN(C)C(=O)c3cccc(Oc4ccccc4)c3)ccn2)CC1

- IC50 [20]: > 50 µM
- IC50 [21]: > 50 µM
Compound: CCc1ccc(-c2ncn(CC3(F)CCN(C)CC3)c2-c2ccnc3[nH]ccc23)nc1

- IC50 [22]: 3.5 µM
- IC50 [23]: 0.047 µM
- IC50 [24]: 0.22 µM
Compound: CN1CCC(F)(Cn2cnc(-c3ccc(F)cn3)c2-c2ccnc3[nH]ccc23)CC1
